Results reported in patent publication US20240217947A1, “Morpholinylquinazoline Compound, Pharmaceutical compositions thereof and Use Thereof” (SHANGHAI YINGLI PHARMACEUTICAL CO., LTD, priority 2022, published 2024).
pIC50: −log10 of the molar value.

Assays:
Type in all cases: biochemical
PI3Kα = PI3Kα (Homo sapiens, UniProt P42336); test: PI3Kα enzyme activity inhibition IC50 evaluation assay (ADP-Glo Kinase Assay); details: ATP 25 μM, PIP2 50 μg/mL, 1 hour room temperature, read-out: PI3K-α IC50
Method: Effec Example 1 IC50 evaluation assay for PI3Kα, PI3Kδ, PI3Kβ and PI3Kγ enzyme activity inhibition
The experiment was performed using the ADP-Glo Kinase Assay kit, following the instructions. The following buffer solutions were prepared: 50 mM HEPES, pH 7.5, 3 mM MgCl2, 1 mM EGTA, 100 mM NaCl, 0.03% CHAPS, 2 mM DTT. The test compound samples were dissolved in DMSO and added to the screening system at a certain starting concentration such as 10 μM, 3-fold dilution, while setting up both DMSO control and no kinase control. The optimal concentrations of PI3Kα, PI3Kδ, PI3Kβ and PI3Kγ enzymes, substrate (PIP2) and ATP were prepared in buffer. The enzyme reaction system included: buffer, ATP 25 μM, kinase substrate (PIP2, 50 μg/mL), kinases [PI3Kα (0.15 μg/mL), PI3Kδ (1.2 μg/mL), PI3Kβ (0.3 μg/mL) and PI3Kγ (2.5 μg/mL)], etc. The reaction system was reacted at room temperature for 1 hour. The reaction was terminated by adding a termination reagent (ADP-Glo reagent, 5 μL), and the ADP content in the system was detected using a detection reagent (Kinase Detection Reagent, 10 μL). Signal data were collected using the Envision instrument. Calculate the percentage of (%) inhibition according to the following formula: % inhibition=(DMSO control signal value−sample signal value)/(DMSO control signal value−no-kinase control signal value). The IC50 value was obtained by fitting the curve using the formula Y=Bottom+(Top-Bottom)/(1+(IC50/X)^HillSlope).

HDAC3 = HDAC3 (Homo sapiens, UniProt O15379); test: HDAC3 enzyme activity inhibition IC50 evaluation experiment; details: HDAC3 7 nM, acetylated peptide 5 μM, trypsin, fluorescence
Method: Effect Example 2 HDAC1, HDAC2, HDAC3, HDAC6 enzyme activity inhibition IC50 evaluation experiment
Buffer solution (50 mM Tris 7.5, 0.01% Tween-20, 50 mM NaCl) was prepared according to the kit instructions, and the enzyme solution and substrate solution (acetylated peptide with the addition of trypsin) were prepared using the buffer solution. The test compound samples were dissolved with DMSO and added to the screening system at a certain starting concentration such as 10 μM, 3-fold dilution, while setting up a DMSO control and no-enzyme control. The enzyme reaction system includes: buffer, enzyme [final concentration: HDAC1=10 nM, HDAC2=4 nM, HDAC3=7 nM, HDAC6=5 nM], substrate (acetylated peptide) [final concentration: Peptide(HDAC1)=8 μM, Peptide(HDAC2)=10 μM, Peptide(HDAC3)=5 μM, Peptide(HDAC6)=11 μM], trypsin [final concentration: Trypsin(HDAC1,2,3)=0.05 μM, Trypsin(HDAC6)=0.1 μM], etc. The enzymes and compounds were reacted at room temperature for 15 min. After adding the substrate and Trypsin, centrifugation was performed for 1 min, and the fluorescence signal data (excitation wavelength 355 nM/emission wavelength 460 nm) was read continuously for 60 min using Envision, and the linear reaction segment was selected to obtain the slope and thus calculate the inhibition rate at that concentration. The IC50 value was obtained by fitting the curve using the formula Y=Bottom+(Top-Bottom)/(1+(IC50/X)^HillSlope).

HDAC8 = target: T1, HDAC8 (Homo sapiens, UniProt Q9BY41); test: HDAC8 enzyme activity inhibition IC50 evaluation experiment; details: HDAC8 10 nM, acetylated peptide 20 μM, 240 min, fluorescence
T1 sequence (Q9BY41 1-377): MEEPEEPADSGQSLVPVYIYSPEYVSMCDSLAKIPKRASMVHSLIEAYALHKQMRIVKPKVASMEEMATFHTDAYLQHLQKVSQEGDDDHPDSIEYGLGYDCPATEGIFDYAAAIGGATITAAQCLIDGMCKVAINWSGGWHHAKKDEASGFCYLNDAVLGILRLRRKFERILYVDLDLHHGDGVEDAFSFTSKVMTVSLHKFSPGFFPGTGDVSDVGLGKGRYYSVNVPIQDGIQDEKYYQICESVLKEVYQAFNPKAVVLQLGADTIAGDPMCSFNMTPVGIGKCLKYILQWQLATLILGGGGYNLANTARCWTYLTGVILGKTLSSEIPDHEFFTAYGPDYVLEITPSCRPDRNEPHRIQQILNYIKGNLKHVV
Method: Effect Example 3 HDAC8, HDAC10 enzyme activity inhibition IC50 evaluation experiment
Prepare buffer solution (HDAC8: 50 mM Tris 8.0, 2.7 mM KCl, 137 mM NaCl, 1 mM MgCl2, 1 mg/mL BSA; HDAC10: 50 mM Tris 7.5, 0.01% Tween-20, 50 mM NaCl, 0.05 mg/mL BSA) according to the kit instructions, prepared Enzyme solution, substrate solution (acetylated peptide) by using buffer. The test compound samples were dissolved in DMSO and was added to the screening system at a certain starting concentration such as 10 μM, 3-fold dilution, while setting up the DMSO control and the no-enzyme control. The enzyme reaction system includes: buffer, enzyme [final concentration: HDAC8=10 nM, HDAC10=10 nM], substrate (acetylated peptide) [final concentration: Peptide(HDAC8)=20 μM, Peptide(HDAC10)=4 μM], etc. The enzymes and compounds were reacted at room temperature for 15 minutes. After adding the substrate peptide the reaction system was reacted at room temperature for 240 min. Trypsin solution was added [final concentration: Trypsin=50p M] and incubation continued for 120 min. The fluorescence signal data (excitation wavelength 355 nM/emission wavelength 460 nm) was read with Envision instrument. Calculate the inhibition rate at this concentration based on the relative fluorescence units (RFU). The IC50 value was obtained by fitting a curve using the formula Y=Bottom+(Top-Bottom)/(1+(IC50/X)^HillSlope).

PI3Kα, sequence (P42336 whole entry, species assumed): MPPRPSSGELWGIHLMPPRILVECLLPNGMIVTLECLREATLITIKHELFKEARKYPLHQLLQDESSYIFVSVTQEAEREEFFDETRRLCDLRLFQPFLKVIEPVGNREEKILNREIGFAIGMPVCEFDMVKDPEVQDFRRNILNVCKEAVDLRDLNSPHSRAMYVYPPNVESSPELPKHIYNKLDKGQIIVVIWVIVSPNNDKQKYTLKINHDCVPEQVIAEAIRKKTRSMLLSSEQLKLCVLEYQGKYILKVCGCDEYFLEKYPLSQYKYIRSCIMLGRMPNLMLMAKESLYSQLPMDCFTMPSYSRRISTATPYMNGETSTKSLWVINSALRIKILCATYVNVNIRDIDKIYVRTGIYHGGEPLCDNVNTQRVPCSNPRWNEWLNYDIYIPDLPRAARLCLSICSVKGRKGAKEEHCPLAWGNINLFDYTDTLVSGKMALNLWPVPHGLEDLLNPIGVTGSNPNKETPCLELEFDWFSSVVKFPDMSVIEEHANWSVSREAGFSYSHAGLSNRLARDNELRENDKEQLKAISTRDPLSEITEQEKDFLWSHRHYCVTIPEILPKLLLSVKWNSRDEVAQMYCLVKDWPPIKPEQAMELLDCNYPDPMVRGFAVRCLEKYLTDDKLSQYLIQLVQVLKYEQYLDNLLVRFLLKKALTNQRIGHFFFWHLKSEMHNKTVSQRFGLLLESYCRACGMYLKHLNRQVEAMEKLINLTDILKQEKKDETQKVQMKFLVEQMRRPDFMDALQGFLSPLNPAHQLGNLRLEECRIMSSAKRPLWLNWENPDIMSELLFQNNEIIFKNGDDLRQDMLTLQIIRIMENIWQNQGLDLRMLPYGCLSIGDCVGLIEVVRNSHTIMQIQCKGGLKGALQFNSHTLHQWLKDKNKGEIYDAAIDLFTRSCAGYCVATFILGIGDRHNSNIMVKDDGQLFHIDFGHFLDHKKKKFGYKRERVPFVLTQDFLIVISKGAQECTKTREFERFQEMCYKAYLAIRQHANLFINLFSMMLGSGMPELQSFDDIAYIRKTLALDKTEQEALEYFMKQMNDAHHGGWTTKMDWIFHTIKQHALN
PI3Kα, sequence (P27986 whole entry partner, species assumed): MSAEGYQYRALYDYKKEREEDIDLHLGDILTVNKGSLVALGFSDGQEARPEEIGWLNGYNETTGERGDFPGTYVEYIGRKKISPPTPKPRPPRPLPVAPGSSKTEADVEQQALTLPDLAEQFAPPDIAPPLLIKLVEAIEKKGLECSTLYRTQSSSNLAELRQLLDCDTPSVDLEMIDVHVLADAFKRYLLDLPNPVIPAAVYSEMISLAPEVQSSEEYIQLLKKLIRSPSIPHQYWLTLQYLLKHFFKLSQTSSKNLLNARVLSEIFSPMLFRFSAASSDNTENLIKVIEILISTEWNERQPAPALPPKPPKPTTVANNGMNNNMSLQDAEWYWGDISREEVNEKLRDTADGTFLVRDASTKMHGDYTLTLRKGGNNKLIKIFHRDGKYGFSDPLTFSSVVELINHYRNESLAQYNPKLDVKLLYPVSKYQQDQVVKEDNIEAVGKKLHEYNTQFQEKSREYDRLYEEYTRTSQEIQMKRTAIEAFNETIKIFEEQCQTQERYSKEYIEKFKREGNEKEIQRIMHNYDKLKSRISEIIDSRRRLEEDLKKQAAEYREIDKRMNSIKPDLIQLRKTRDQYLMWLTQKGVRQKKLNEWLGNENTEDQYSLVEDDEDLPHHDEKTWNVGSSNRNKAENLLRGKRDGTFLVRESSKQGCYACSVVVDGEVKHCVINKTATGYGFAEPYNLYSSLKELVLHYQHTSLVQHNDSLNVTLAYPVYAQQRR
HDAC3, sequence (O15379 whole entry, species assumed): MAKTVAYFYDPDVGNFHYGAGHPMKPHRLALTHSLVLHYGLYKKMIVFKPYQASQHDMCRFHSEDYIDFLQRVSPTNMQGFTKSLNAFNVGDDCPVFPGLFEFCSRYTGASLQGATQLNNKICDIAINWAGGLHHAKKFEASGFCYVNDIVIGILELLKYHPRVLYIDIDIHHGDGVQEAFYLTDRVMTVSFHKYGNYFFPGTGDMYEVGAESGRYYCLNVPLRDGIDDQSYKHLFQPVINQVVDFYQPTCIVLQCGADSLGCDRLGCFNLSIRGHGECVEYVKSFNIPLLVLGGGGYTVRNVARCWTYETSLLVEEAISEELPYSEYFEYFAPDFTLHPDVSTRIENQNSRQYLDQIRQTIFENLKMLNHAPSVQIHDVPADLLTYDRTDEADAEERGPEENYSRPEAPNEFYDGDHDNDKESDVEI
HDAC3, sequence (Q9Y618 395-489 partner limits assumed, species assumed): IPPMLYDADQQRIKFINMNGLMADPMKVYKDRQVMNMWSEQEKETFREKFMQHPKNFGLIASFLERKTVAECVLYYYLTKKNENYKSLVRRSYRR

SMILES | pIC50 (PI3Kα) | pIC50 (HDAC3) | pIC50 (HDAC8)
COc1ncc(-c2nc(N3CCOCC3)nc3c(OC4CCN(c5ncc(C(=O)NO)cc5F)CC4)cc(F)cc23)cc1NS(C)(=O)=O [Compound 30] | 6.00 to 7.00 | 6.00 to 7.00 | 6.00 to 7.00
COc1ncc(-c2nc(N3CCOCC3)nc3c(OC4CCN(c5ncc(C(=O)NO)cn5)CC4)cc(F)cc23)cc1NS(C)(=O)=O [Compound 39] |  | 7.00 to 8.00 | 6.00 to 7.00
COc1ncc(-c2nc(N3CCOCC3)nc3c(OC4CCN(c5ccc(C(=O)NO)cn5)CC4)cc(F)cc23)cc1NS(C)(=O)=O [Compound 40] |  | 6.00 to 7.00 | 5.00 to 6.00

Further lines, results first:

pIC50 (PI3Kα) | pIC50 (HDAC3) | pIC50 (HDAC8) | SMILES
6.00 to 7.00 | 7.00 to 8.00 |  | COc1ncc(-c2nc(N3CCOCC3)nc3c(CN4CCN(c5ncc(C(=O)NO)cn5)CC4)cc(F)cc23)cc1NS(C)(=O)=O [Compound 7]
5.00 to 6.00 | 7.00 to 8.00 |  | COc1ncc(-c2nc(N3CCOCC3)nc3c(OCCCCCCC(=O)NO)cc(F)cc23)cc1NS(C)(=O)=O [Compound 9]
